Source: article PMC2910439, “Imperatoxin A, a Cell-Penetrating Peptide from Scorpion Venom, as a Probe of Ca^2+-Release Channels/Ryanodine Receptors” (Pharmaceuticals, 2010)
Starred links: 1 amine or outer side, 2 acyl side, 3 side chain; linkers in the order of their positions; H or OH if unused. Positions of bridges follow the written chain, without caps; N, C: chain ends. Non-standard residues stand in square brackets, D forms with d. Residues, ends and D or L forms follow the SMILES beside them. *: point of attachment. X1 = CC1CC(C)(C)Nc2c1cc1c(c2S(=O)(=O)O)Oc2c(S(=O)(=O)O)c3c(cc2=C1c1c(Cl)c(SCC(=O)*)c(Cl)c(Cl)c1C(=O)O)C(C)CC(C)(C)N=3; X2 = N=C(CCCSC1CC(=O)N(CCCCCN[*:1])C1=O)NCC(=O)[*:2]

Key:
[1] = test system: intact mouse ventricular myocytes; type: cell-based; conditions: for speed of penetration into living isolated cardiomyocytes: conclusion, native toxin judged by [Ca2+]i transients, derivative by fluorescence
Method: To visualize the cell-penetrating properties of Alexa-IpTxa in intact cells, ventricular cardiomyocytes were enzymatically isolated and incubated with 5 μM Alexa-IpTxa and Alexa 488-Wheat Germ Agglutinin (10 μg/mL) for 30 min at room temperature (see Experimental Methods). The distribution of Alexa-546-IpTxa (red fluorescence) and WAG-Alexa-488 (green fluorescence) were monitored in living, unfixed cardiac myocytes.
We next sought to establish a time-course for the translocation of Alexa-IpTxa across the plasma membrane of intact cardiomyocytes. […] Clear intracellular localization of fluorescence is seen only with Alexa-IpTxa, as early as 10 min after incubation (panel D), but more intensely after 20 min incubation (panel F). In order to refine the time-course of Alexa-IpTxa penetration into cardiomyocytes, we continuously monitored the evolution of fluorescence in 3 regions of interest (ROI) corresponding to the plasma membrane and adjacent cytosol (ROI-1), the bulk cytosol (ROI-2), and the nucleus (ROI-3). A fourth ROI (not shown) was defined to monitor changes in fluorescence of the bath solution. Animations of IpTxa translocation into cells are available online as supplementary data (URL: http://www.mdpi.com/1424-8247/3/4/1093/S1).
Isolated cardiac myocytes were incubated with Alexa-546-IpTxa (5 μM) with or without WGA-Alexa 488 (10 μg/mL) for 30 min in the dark. Images were acquired with a BioRad MR-1 confocal microscope coupled to a Nikon Disphot microscope and an X60 oil immersion objective using the Lasersharp 2000 software. Confocal images are 0.25 μm sections. All experiments were performed at room temperature.
Ventricular myocytes were imaged with a Zeiss META 5 confocal microscope equipped with laser scanning. Three regions of interest were delineated corresponding to the plasma membrane (ROI-1), […]. Changes in fluorescence intensity in these regions were monitored and analyzed. Alexa-546-IpTxa fluorescence was excited with the 488 nm line of an argon laser, and emitted light was filtered by a LP 585 filter. Alexa-546-IpTxa was perfused at a concentration of 1 μM. Scans were taken every 3 seconds for a total of 351 seconds. After the time series, perfusion was turned off and the cell remained in the bath for 30 minutes. Scans were taken at 9 minutes and 30 minutes.

[2] = test system: intact mouse ventricular cardiomyocytes; assay: Ca2+ imaging of field-stimulated ventricular myocytes perfused with toxin; type: cell-based
Method: IpTxa’s ability to induce subconducting states in single channels and to enhance binding of [^3H]ryanodine to SR vesicles distinguish it as a RyR agonist. […] Ventricular cardiomyocytes were enzymatically digested, loaded with the Ca^2+ indicator Fluo-3, and placed into the perfusion chamber of a Zeiss confocal microscope (see Experimental Methods). Cells were field-stimulated under Normal Tyrode (NT) solution, and Ca^2+ transients were recorded in line-scan mode (control). Perfusion was then changed to NT + IpTxa (in the range of 100 nM-30 µM), and transients were recorded in the presence of toxin (+IpTxa). We hypothesized that if IpTxa penetrates cardiomyocytes to reach its intracellular target, it would alter the shape of [Ca^2+]i transients elicited with field-stimulation. As expected, changes in [Ca^2+]i transients were evident within seconds of perfusion with the toxin. […] For this experiment, cells were paced at 0.5 Hz under NT solution (see Experimental Methods). Cells were scanned first without IpTxa (control transients, Figure 1A), and then IpTxa was perfused and a second scan was taken immediately afterward (Figure 1B).
Mouse ventricular myocytes were isolated by collagenase digestion of perfused mouse hearts using the method of Mitra and Morad with modification addressed by Wolska and Solaro [23]. Mice were heparinized and anesthetized […] before removal and hanging of the heart. Cells were suspended in Tyrode solution ((mM) 130 NaCl, 5.4 KCl, 0.4 NaH2PO4, 0.5 MgCl2, 25 HEPES, 22 glucose, 0.01 μg/mL insulin, pH7.4 with NaOH) and kept at room temperature until used within 6 h.
Changes in cytosolic [Ca^2+] using the Ca^2+-dependent fluorescent dye Fluo-3 AM. Fluo-3 AM was added to ventricular myocytes in Tyrodes solution (final concentration 10 μM) and incubated at room temperature for 30 minutes, after which the cells were washed and resuspended in Tyrodes solution. Fluorescence changes were monitored with a Zeiss META 5 line-scanning confocal microscope. Fluo-3 was excited at 488nm, and emissions were collected at 500-570 nm. Cells were perfused with normal Tyrodes and field-stimulated at 1 Hz. After recording control transients, synthetic, unmodified IpTxa was perfused at concentrations of 10 μM, 1 μM, and 100 nM for 10 seconds. To estimate the calcium load of the sarcoplasmic reticulum, we stopped stimulations and performed a rapid application of 10 mM caffeine to elicit complete Ca^2+ release.

[3] = test system: isolated rat ventricular myocytes; conditions: 0.5 mM; followed by steady decline to a new lower steady-state; cited from earlier work
Method: At lower concentrations (100-300 nM), IpTxa perfusion elicited several discernible stimulatory effects in most cells.

Compound: CC(C)C[C@@H]1NC(=O)[C@H](Cc2c[nH]cn2)NC(=O)[C@@H]2CCCN2C(=O)[C@H](CC(C)C)NC(=O)[C@@H](NC(=O)[C@H](CC(=O)O)NC(=O)CNC(=N)CCCSC2CC(=O)N(CCCCCNC(=O)CSc3c(Cl)c(Cl)c(C(=O)O)c(C4=c5cc6c(c(S(=O)(=O)O)c5Oc5c4cc4c(c5S(=O)(=O)O)NC(C)(C)CC4C)=NC(C)(C)CC6C)c3Cl)C2=O)CSSC[C@@H]2NC(=O)[C@@H]3CSSC[C@@H](C(=O)N[C@@H](CCCNC(=N)N)C(=O)O)NC(=O)[C@H](CCCNC(=N)N)NC(=O)[C@H](CCCCN)NC(=O)[C@H](CCC(=O)O)NC(=O)[C@H](C)NC(=O)[C@H](CC(N)=O)NC(=O)[C@H]([C@@H](C)O)NC(=O)CNC(=O)[C@H](CCCNC(=N)N)NC(=O)[C@H](CCCNC(=N)N)NC(=O)[C@H](CCCCN)NC(=O)[C@H](CSSC[C@H](NC(=O)[C@H](CCCNC(=N)N)NC(=O)[C@H](CCCCN)NC1=O)C(=O)N[C@@H](CCCCN)C(=O)N[C@@H](C)C(=O)N[C@@H](CC(=O)O)C(=O)N[C@@H](CC(N)=O)C(=O)N[C@@H](CC(=O)O)C(=O)N3)NC(=O)[C@H](CCCCN)NC(=O)[C@H](CCCCN)NC(=O)CNC2=O (stereo partly drawn) [Alexa-IpTxa] (X1-[X2]DCLPHLKRCKADNDCCGKKCKRRGTNAEKRCR-OH; disulfide 3-17, 10-21, 16-32; C-terminus assumed)
- time at which clear intracellular localization of fluorescence is seen ([1]; 1 μM perfusion, confocal, more intense at later time): ≤ 10 min
- speed of penetration into living isolated cardiomyocytes [1]: slower (minutes)

Compound: CC1CC(C)(C)Nc2c1cc1c(c2S(=O)(=O)O)Oc2c(S(=O)(=O)O)c3c(cc2=C1c1c(Cl)c(SCC(=O)NCCCCCN2C(=O)C=CC2=O)c(Cl)c(Cl)c1C(=O)O)C(C)CC(C)(C)N=3 (stereo not drawn) [Alexa-maleimide, Alexa-Fluor-546-C5-maleimide, reference compound]
- membrane permeability (negative control) ([1]; as stated for the fluorophore reagent): membrane-impermeable

Compound: CC(C)C[C@@H]1NC(=O)[C@H](Cc2c[nH]cn2)NC(=O)[C@@H]2CCCN2C(=O)[C@H](CC(C)C)NC(=O)[C@@H](NC(=O)[C@H](CC(=O)O)NC(=O)CN)CSSC[C@@H]2NC(=O)[C@@H]3CSSC[C@@H](C(=O)N[C@@H](CCCNC(=N)N)C(=O)O)NC(=O)[C@H](CCCNC(=N)N)NC(=O)[C@H](CCCCN)NC(=O)[C@H](CCC(=O)O)NC(=O)[C@H](C)NC(=O)[C@H](CC(N)=O)NC(=O)[C@H]([C@@H](C)O)NC(=O)CNC(=O)[C@H](CCCNC(=N)N)NC(=O)[C@H](CCCNC(=N)N)NC(=O)[C@H](CCCCN)NC(=O)[C@H](CSSC[C@H](NC(=O)[C@H](CCCNC(=N)N)NC(=O)[C@H](CCCCN)NC1=O)C(=O)N[C@@H](CCCCN)C(=O)N[C@@H](C)C(=O)N[C@@H](CC(=O)O)C(=O)N[C@@H](CC(N)=O)C(=O)N[C@@H](CC(=O)O)C(=O)N3)NC(=O)[C@H](CCCCN)NC(=O)[C@H](CCCCN)NC(=O)CNC2=O [IpTxa, imperatoxin A] (H-GDCLPHLKRCKADNDCCGKKCKRRGTNAEKRCR-OH; disulfide 3-17, 10-21, 16-32 (inferred); N-terminus and C-terminus assumed)
- effect on diastolic [Ca2+]i ([2]; 100 nM to 3 µM perfused, in some cells): elevated diastolic [Ca^2+]i
- effect on [Ca2+]i transients at high concentration ([2]; 30 µM perfused in normal Tyrode, cells paced at 0.5 Hz, Fluo indicator, line-scan confocal, representative of three of four experiments): complete cessation of [Ca^2+]i transients
- effect on [Ca2+]i transient amplitude at lower concentrations ([2]; 100-300 nM perfused, followed by gradual diminution to a new, lower steady-state, representative of 12 of 36 experiments): significant increase in the amplitude of the [Ca^2+]i transient
- lag time of effects on intracellular Ca2+ signaling after perfusion ([2]; perfusion on intact cells): 2 to 3 s
- speed of penetration into living isolated cardiomyocytes [1]: rapid (few seconds)

Compound: Cn1c(=O)c2c(ncn2C)n(C)c1=O [caffeine]
- effect on Ca2+ transient amplitude [3]: brief increase in the amplitude of the Ca^2+ transient
